Where a name gives a salt, the structure may show the parent alone.
Columns and labels:
AR2 cells (HepG2-AR2) = assay: Alamar Blue (resazurin) post hoc cell viability / cytotoxicity assay in AR2 cells; conditions: spid Viability, sheet antagonist_fits; for hill_tp (Hill model top): 0 where win_model is Constant
Protocol: For antagonist mode and cytotoxicity data, well-level normalized response (resp) was calculated as: resp=100 * RLU−bval/pval−bval where pval is the median RLU value of the MEC positive control wells (minimum four wells).

human AR [1] = target: T1, human AR (Homo sapiens, UniProt P10275); assay: AR2 assay, antagonist mode: disruption of R1881 (10 nM)-induced AR homodimerization in HepG2-AR2 cells; format: cell-based; conditions: spid AR_antagonist, sheet antagonist_fits
T1 sequence (P10275 1-920) 1: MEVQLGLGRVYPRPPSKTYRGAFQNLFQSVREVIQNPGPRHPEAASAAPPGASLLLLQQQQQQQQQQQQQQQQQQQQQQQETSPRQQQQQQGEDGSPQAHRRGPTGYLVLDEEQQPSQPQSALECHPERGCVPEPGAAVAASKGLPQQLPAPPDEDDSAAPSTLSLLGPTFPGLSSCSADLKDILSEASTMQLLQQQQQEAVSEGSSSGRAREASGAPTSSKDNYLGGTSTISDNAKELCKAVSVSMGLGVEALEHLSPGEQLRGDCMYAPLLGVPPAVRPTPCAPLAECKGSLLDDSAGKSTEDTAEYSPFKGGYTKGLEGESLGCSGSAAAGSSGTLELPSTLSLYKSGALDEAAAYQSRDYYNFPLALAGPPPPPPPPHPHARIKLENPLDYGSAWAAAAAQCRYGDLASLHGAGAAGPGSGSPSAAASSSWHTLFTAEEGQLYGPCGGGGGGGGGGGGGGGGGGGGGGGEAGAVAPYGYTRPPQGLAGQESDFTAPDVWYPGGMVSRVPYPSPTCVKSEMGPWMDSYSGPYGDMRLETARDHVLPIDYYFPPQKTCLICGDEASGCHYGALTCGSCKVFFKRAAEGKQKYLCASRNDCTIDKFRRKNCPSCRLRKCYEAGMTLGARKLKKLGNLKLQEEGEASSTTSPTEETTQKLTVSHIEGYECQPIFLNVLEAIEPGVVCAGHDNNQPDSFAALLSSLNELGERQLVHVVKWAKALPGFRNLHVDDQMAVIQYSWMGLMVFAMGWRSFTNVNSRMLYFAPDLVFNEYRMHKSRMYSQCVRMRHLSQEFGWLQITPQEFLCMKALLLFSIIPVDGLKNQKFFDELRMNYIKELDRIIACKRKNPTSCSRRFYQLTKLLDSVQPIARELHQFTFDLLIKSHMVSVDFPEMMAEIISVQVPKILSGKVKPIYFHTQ
T1 sequence (P10275 1-920) 2: T1 sequence (P10275 1-920) 1

human AR [2] = target: T1, human AR; assay: AR2 assay, agonist mode: ligand-dependent AR homodimerization (NanoBiT luciferase complementation) in stable HepG2-AR2 cells; format: cell-based; conditions: sheet agonist_fits;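 as to hill tp: Log2 fold change of luminescence over DMSO vehicle wells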;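 as to max med: Log2 fold change of luminescence over DMSO vehicle wells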

Row | Molecule | max_med (maximum median response) (AR2 cells (HepG2-AR2)) | hill_tp (Hill model top) (AR2 cells (HepG2-AR2)) | other results
1 | O=C(O)c1ccc(O)cc1 [4-Hydroxybenzoic acid] | 5.145 | 0 | 
2 | CCCCCOC(=O)c1ccccc1C(=O)OCCCCC [Dipentyl phthalate] | 14.047 | 13.5743 | 
3 | CCOP(=S)(OCC)Oc1cc(C)nc(C(C)C)n1 [Diazinon] | 6.875 | 0 | 
4 | CCCCC(CC)COC(=O)c1ccc(O)cc1 (centres unmarked) [2-Ethylhexylparaben] | 99.7953 | 102.21 | 
5 | CC(C)Oc1cccc(NC(=O)c2ccccc2C(F)(F)F)c1 [Flutolanil] | 9.82 | 12.8643 | 
6 | CCC[CH2][Sn]([Cl])([CH2]CCC)[CH2]CCC [Tributylchlorostannane] | 99.8606 | 99.7567 | 
7 | CC(C)(C)C(O)(CCc1ccc(Cl)cc1)Cn1cncn1 (centres unmarked) [Tebuconazole] | 20.78 | 45.6531 | 
8 | O=C(c1ccc(OCCN2CCCCC2)cc1)c1c(-c2ccc(O)cc2)sc2cc(O)ccc12 [Raloxifene hydrochloride] | 99.7657 |  | 
9 | CCC(C)(C)c1ccc(O)cc1 [4-(2-Methylbutan-2-yl)phenol] | 17.1743 | 12.5636 | 
10 | CCN(CC)CCOc1ccc(/C(=C(/Cl)c2ccccc2)c2ccccc2)cc1 [Enclomiphene hydrochloride] | 99.6641 | 101.238 | max_med (maximum median response) (human AR [1]): 104.097; win_model (winning concentration-response model) (human AR [1]): Hill; hill_gw (Hill model slope) (human AR [1]; 0 where win_model is Constant): 2.002; hill_tp (Hill model top) (human AR [1]; 0 where win_model is Constant): 106.442; hill_tp (human AR [2]; Hill model top (efficacy), 0 given where win_model is Constant): 0; max_med (human AR [2]; maximum median response): 0.05981; win_model (human AR [2]; winning concentration-response model (Constant, Hill, Gain-Loss)): Constant
11 | C#CC(C)(C)NC(=O)c1cc(Cl)cc(Cl)c1 [Propyzamide] | 10.1701 | 0 | 
12 | CCCCC(CC)CN1C(=O)[C@@H]2[C@H](C1=O)[C@@H]1C=C[C@H]2C1 (some centres unmarked) [Octylbicycloheptenedicarboximide] | 1.86 | 0 | 
13 | COP(=O)(NC(C)=O)SC (centres unmarked) [Acephate] | 10.7949 | 0 | 
14 | CC(C)(C#N)c1cc(Cn2cncn2)cc(C(C)(C)C#N)c1 [Anastrozole] | 9.832 | 0 | 
15 | CC(C)[C@H](C(=O)O[C@H](C#N)c1cccc(Oc2ccccc2)c1)c1ccc(Cl)cc1 [Esfenvalerate] | -0.2527 |  | 
16 | O=C(c1ccccc1)c1ccc(O)cc1O [2,4-Dihydroxybenzophenone] | 13.9578 | 7.468 | 
17 | CCCCN(CC)c1c([N+](=O)[O-])cc(C(F)(F)F)cc1[N+](=O)[O-] [Benfluralin] | 17.0663 | 11.4566 | 
18 | COP(=S)(OC)Oc1nc(Cl)c(Cl)cc1Cl [Chlorpyrifos-methyl] | 15.7636 | 36.973 | 
19 | CSc1nnc(C(C)(C)C)c(=O)n1N [Metribuzin] | 29.1814 | 43.0001 | 
20 | C#C[C@]1(O)CC[C@H]2[C@@H]3CCc4cc(O)ccc4[C@H]3CC[C@@]21C [17alpha-Ethinylestradiol] | 47.5761 | 60.3321 | 
21 | O=c1oc2cc(O)ccc2c2oc3cc(O)ccc3c12 [Coumestrol] | 39.9111 | 51.0591 | 
22 | C#C[C@]1(O)CC[C@H]2[C@@H]3CCC4=Cc5oncc5C[C@]4(C)[C@H]3CC[C@@]21C [Danazol] | 99.6979 | 119.707 | 
23 | N#Cc1c(Cl)c(Cl)c(Cl)c(C#N)c1Cl [Chlorothalonil] | 85.6054 | 117.241 | 
24 | CCCCCCCCCc1ccc(O)cc1 [4-Nonylphenol] | 99.78 | 100.689 | 
25 | CCCCCC(=O)O[C@]1(C(C)=O)CC[C@H]2[C@@H]3CCC4=CC(=O)CC[C@]4(C)[C@H]3CC[C@@]21C [Hydroxyprogesterone caproate] | -5.885 |  | 

Row | Molecule | max_med (maximum median response) (AR2 cells (HepG2-AR2)) | hill_tp (Hill model top) (AR2 cells (HepG2-AR2)) | other results
26 | O=S(=O)(c1ccc(O)cc1)c1ccc(O)cc1 [4,4'-Sulfonyldiphenol] | 24.7063 | 39.4827 | 
27 | O=C1C(Cl)=C(Cl)C(=O)c2ccccc21 [Dichlone, dichlone] | 100 | 121.536 | 
28 | Cc1c(COC(=O)[C@@H]2[C@H](/C=C(\Cl)C(F)(F)F)C2(C)C)cccc1-c1ccccc1 (racemic) [Bifenthrin] | 19.5548 | 23.386 | 
29 | COP(=S)(OC)Oc1ccc(SC)c(C)c1 [Fenthion] | 20.1632 | 17.5948 | 
30 | Abamectin | 81.1222 |  | 
31 | CCCCCCOC(=O)c1ccccc1C(=O)OCCCCCC [Dihexyl phthalate] | 14.953 | 18.2229 | 
32 | CC(C)C(C(=O)OC(C#N)c1cccc(Oc2ccccc2)c1)c1ccc(Cl)cc1 (centres unmarked) [Fenvalerate] | 17.5112 | 13.0316 | 
33 | C[C@]12C[C@H](O)[C@H]3[C@@H](CCC4=CC(=O)CC[C@@]43C)[C@@H]1CC[C@@H]2C(=O)CO [Corticosterone] | -0.2958 |  | 
34 | CCCCC(CC)COC(=O)c1ccccc1C(=O)OCC(CC)CCCC (centres unmarked) [Bis(2-ethylhexyl)phthalate] | 27.6798 | 16.491 | 
35 | CCCCC(CC)COC(=O)c1ccccc1C(=O)O (centres unmarked) [Mono(2-ethylhexyl) phthalate] | 10.2899 | 5.023 | 
36 | Clc1ccc(C(c2ccc(Cl)cc2)C(Cl)(Cl)Cl)cc1 [Dichlorodiphenyltrichloroethane] | 73.7925 | 94.5035 | 
37 | COP(=S)(OC)SCN1C(=O)c2ccccc2C1=O [Phosmet] | 21.0825 | 27.9412 | 
38 | CCCCC(CC)COC(=O)CCCCC(=O)OCC(CC)CCCC (centres unmarked) [Bis(2-ethylhexyl)hexanedioate] | 8.67 | 0 | 
39 | CC/C(=C(/CC)c1ccc(O)cc1)c1ccc(O)cc1 [Diethylstilbestrol] | 99.7753 | 119.773 | 
40 | CC(C)=CC1C(C(=O)OCc2cccc(Oc3ccccc3)c2)C1(C)C (centres unmarked) [Phenothrin] | 11.6591 | 28.3579 | 
41 | CCc1cccc(C)c1N(C(=O)CCl)C(C)COC (centres unmarked) [Metolachlor] | 26.908 | 20.923 | 
42 | CCCCCCCCCCCCc1ccc(O)cc1 [4-Dodecylphenol] | 99.7202 | 99.8404 | 
43 | O=c1c(O)c(-c2ccc(O)cc2)oc2cc(O)cc(O)c12 [Kaempferol] | 36.6036 | 30.9927 | 
44 | Oc1c(Cl)c(Cl)c(Cl)c(Cl)c1Cl [Pentachlorophenol] | 53.4588 | 63.2778 | 
45 | C[Si]1(C)O[Si](C)(C)O[Si](C)(C)O[Si](C)(C)O1 [Octamethylcyclotetrasiloxane] | 28.4969 | 38.8496 | 
46 | Clc1ccc(Cl)cc1 [p-Dichlorobenzene] | 4.77 |  | 
47 | C[C@]12CC[C@@H]3c4ccc(O)cc4CC[C@H]3[C@@H]1CC[C@@H]2O [17beta-Estradiol] | 11.6181 | 15.1874 | 
48 | O=C(OC1CCCCC1)c1ccccc1C(=O)OC1CCCCC1 [Dicyclohexyl phthalate] | -2.0313 |  | 
49 | COCC(=O)N(c1c(C)cccc1C)C(C)C(=O)OC (centres unmarked) [Metalaxyl] | 11.6523 | 11.8758 | 

From paper PMC10112521, “High-throughput AR dimerization assay identifies androgen disrupting chemicals and metabolites” (Frontiers in Toxicology, 2023)
